Patent publication US8198405B2, “Stabilized alpha helical peptides and uses thereof” (Dana-Farber Cancer Institute, Inc., priority 2003, dated 2012)
Where a SMILES comes first, the peptide text is derived from it. Bridges are numbered along the chain shown (N, C = ends). [ ]: non-standard residue; d: D form. S5 = C=CCCC[C@](C)(N)C(=O)O; Nle = CCCC[C@H](N)C(=O)O

Experiments:
BAX = molecular target: T1, BAX (Homo sapiens, UniProt Q07812); experiment: Fluorescence polarization direct binding assay; settings: full-length BAX
T1 construct: Full-length BAX protein was prepared as previously described (Suzuki et al, Cell, 103:645); made in house

[1] = test system: purified mouse liver mitochondria; experiment: Cytochrome c release assay (ELISA), wild-type mitochondria; type: biochemical
Protocol: (§1) In order to assess the biological activity of SAHB3BID compounds in vitro, cytochrome c release assays were performed using purified mouse liver mitochondria. Mitochondria (0.5 mg/mL) were incubated for 40 minutes with 1 μM and 100 nM of SAHB3BID compounds and then supernatants and mitochondrial fractions isolated and subjected to cytochrome c ELISA assay. Background cytochrome c release (10-15%) was subtracted from total release for each sample, and the percent actual cytochrome c release was determined (FIG. 12). […] In each case, except for the double cross-linked SAHB3BIDE (which may lack critical amino acids for biological activity or, in this case, be overly constrained by the dual cross-links), there is approximately a doubling of cytochrome c release in response to 1 μM SAHB3BID compounds compared to the unmodified peptide (FIG. 12a). […] BID mutants with defective BH3 domains can promote BAK-independent cytochrome c mobilization (Scorrano et al, Dev Cell, 2:55), and the highly hydrophobic BID helix 6 has been implicated in this activity (L. Scorrano, S. J. Korsmeyer, unpublished results).
Similar to the above experiment, mouse liver mitochondria from wild-type and Bak−/− mice were exposed to the compounds at various concentrations and assayed for cytochrome c release at 10 and 40 minute intervals. […] Thus, SAHB3BIDA and B display a 10-25 fold enhancement in cytochrome c release activity at the 40 minute time point.

Jurkat leukemia cells = experiment: Apoptosis by annexin V flow cytometry; type: cell-based; settings: 10 μM, 20 hours
Protocol: (§2) Indeed, the pro-apoptotic effect of 10 uM SAHB3BIDA and B on “wild-type” Jurkats was abolished in the BCL-2 overexpressing cells. […] The observed pro-apoptotic effects are selectively abolished by gly to glu mutation of SAHB3BIDA and cellular overexpression of BCL-2, findings which underscore that SAHB3BID compounds function via the defined mitochondrial apoptosis pathway.

[2] = test system: REH, MV4; 11, and SEMK2 cell lines; experiment: Apoptosis induction assays; type: cell-based
BCL-2 = molecular target: T2, BCL-2 (Homo sapiens, UniProt P10415); experiment: Fluorescence polarization direct binding assay; settings: for Kd: fluorescinated compounds 25 nM, GST-BCL2 25 nM-1000 nM (FIG. 11d)
T2 construct: containing the plasmid encoding C-terminal deleted GST-BCL-2; made in house; host or cells: Escherichia coli BL21 (DE3)

GST-BCL-2 = molecular target: T3, GST-BCL-2 (Homo sapiens, UniProt P10415); experiment: Fluorescence polarization competitive binding (displacement of FITC-BID BH3)
T3 construct: containing the plasmid encoding C-terminal deleted GST-BCL-2; made in house; host or cells: Escherichia coli BL21 (DE3)

BCL-XL = experiment: 15N/1H HSQC NMR of 15N-labeled BCL-XL; type: binding; settings: 1:1 complex, 0.1 mM
Protocol: Briefly, Escherichia coli BL21 (DE3) containing the plasmid encoding C-terminal deleted BCL-XL were cultured in M9-minimal medium containing ^15NH4Cl (Cambridge Isotope Laboratories) to generate uniformly ^15N-labeled protein. Recombinant proteins were isolated from bacteria. […] Two dimensional ^15N/^1H heteronuclear single-quantum spectra were recorded for the two complexes and analyzed for changes in resonance upon ligand binding.

[3] = test system: mouse liver mitochondria isolated from Bak-/- mice; experiment: Cytochrome c release assay, Bak-/- mitochondria (BAK-independent release); type: biochemical; settings: 1 μM, 40 minutes
Protocol: as §1
Similar to the above experiment, mouse liver mitochondria from wild-type and Bak−/− mice were exposed to the compounds at various concentrations and assayed for cytochrome c release at 10 and 40 minute intervals. […]

trypsin = molecular target: T4, trypsin (Bos taurus, UniProt P00760); experiment: In vitro trypsin proteolysis (trypsin agarose); type: in vitro ADME; settings: first order rate constant, triplicate
T4 sequence (P00760 24-246): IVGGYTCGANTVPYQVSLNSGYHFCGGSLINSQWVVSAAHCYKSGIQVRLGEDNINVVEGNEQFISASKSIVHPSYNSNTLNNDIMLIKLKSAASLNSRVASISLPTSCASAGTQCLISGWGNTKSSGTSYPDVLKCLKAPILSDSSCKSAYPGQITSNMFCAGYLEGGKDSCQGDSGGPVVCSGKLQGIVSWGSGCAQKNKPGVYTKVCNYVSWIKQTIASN
Protocol: The amide bond of the peptide backbone is susceptible to hydrolysis by proteases, thereby rendering peptidic compounds vulnerable to rapid degradation in vivo. Peptide helix formation, however, buries the amide backbone and therefore shields it from proteolytic cleavage. […] SAHB3BIDA and unmodified peptide were incubated with trypsin agarose and the reactions quenched at various time points by centrifugation and subsequent HPLC injection to quantitate the residual substrate by ultraviolet absorption at 280 nm. […] Reactions were quenched by tabletop centrifugation at high speed; remaining substrate in the isolated supernatant was quantified by HPLC-based peak detection at 220 nm.

[4] = 10 mg/kg FITC-conjugated peptide, 22 hours post-injection
Protocol: Levels of intact FITC-compound in 25 μL of fresh serum were then measured.

[5] = test system: Jurkat cells engineered to overexpress BCL-2; experiment: Apoptosis by annexin V flow cytometry; type: cell-based
Protocol: as §2

SEMK2-M1 leukemia cells = experiment: SEMK2 leukemia in vivo, total body luminescence

T3 sequence (P10415 1-218 limits assumed): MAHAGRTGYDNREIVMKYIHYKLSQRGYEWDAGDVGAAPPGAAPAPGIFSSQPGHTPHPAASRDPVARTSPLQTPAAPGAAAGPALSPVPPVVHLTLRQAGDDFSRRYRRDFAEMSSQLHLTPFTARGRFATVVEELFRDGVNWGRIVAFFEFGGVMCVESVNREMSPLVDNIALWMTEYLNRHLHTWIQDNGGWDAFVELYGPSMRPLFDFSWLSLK
T2 sequence (P10415 1-218 limits assumed): as above
T1 sequence (Q07812 whole entry): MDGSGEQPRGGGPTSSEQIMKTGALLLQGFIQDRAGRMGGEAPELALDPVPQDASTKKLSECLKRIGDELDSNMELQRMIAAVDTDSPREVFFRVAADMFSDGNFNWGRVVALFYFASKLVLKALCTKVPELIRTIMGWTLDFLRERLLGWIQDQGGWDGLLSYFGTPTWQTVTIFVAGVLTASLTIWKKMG

## CCCC[C@H](NC(=O)[C@]1(C)CCCC=CCCC[C@](C)(NC(=O)[C@H](C)NC(=O)[C@H](CC(C)C)NC(=O)[C@H](Cc2c[nH]cn2)NC(=O)[C@H](CCCNC(=N)N)NC(=O)[C@H](C)NC(=O)[C@@H](NC(=O)[C@H](CC(N)=O)NC(=O)[C@H](CCCNC(=N)N)NC(=O)[C@@H](NC(=O)[C@@H](NC(=O)[C@H](CC(=O)O)NC(=O)[C@H](CCC(=O)O)NC(C)=O)[C@@H](C)CC)[C@@H](C)CC)[C@@H](C)CC)C(=O)N[C@@H](C(C)C)C(=O)N[C@@H](CCC(=O)O)C(=O)N[C@@H](CC(=O)O)C(=O)N1)C(=O)N[C@@H](CC(=O)O)C(=O)N[C@@H](CCCNC(=N)N)C(=O)N[C@@H](CO)C(=O)N[C@H](C(=O)N[C@@H](Cc1c[nH]c2ccccc12)C(N)=O)[C@@H](C)CC [SAHB3BID(G→E)A] (Ac-EDIIRNIARHLA[S5]VED[S5][Nle]DRSIW-NH2; staple 13-17; N-terminus assumed)
BAX
  BAX binding, in words: measurable binding
[1]; wild-type versus Bak-/- mitochondria
  Bak dependence of cytochrome c release, in words: only Bak-independent cytochrome c release
Jurkat leukemia cells
  apoptosis induction, in words: no effect
[2]
  apoptosis induction, in words: no effect
BCL-2
  Kd: 483 nM

## CCCC[C@H](NC(=O)[C@]1(C)CCCC=CCCC[C@](C)(NC(=O)[C@H](C)NC(=O)[C@H](CC(C)C)NC(=O)[C@H](Cc2c[nH]cn2)NC(=O)[C@H](CCCNC(=N)N)NC(=O)[C@H](C)NC(=O)[C@@H](NC(=O)[C@H](CC(N)=O)NC(=O)[C@H](CCCNC(=N)N)NC(=O)[C@@H](NC(=O)[C@@H](NC(=O)[C@H](CC(=O)O)NC(=O)[C@H](CCC(=O)O)NC(C)=O)[C@@H](C)CC)[C@@H](C)CC)[C@@H](C)CC)C(=O)N[C@@H](C(C)C)C(=O)NCC(=O)N[C@@H](CC(=O)O)C(=O)N1)C(=O)N[C@@H](CC(=O)O)C(=O)N[C@@H](CCCNC(=N)N)C(=O)N[C@@H](CO)C(=O)N[C@H](C(=O)N[C@@H](Cc1c[nH]c2ccccc12)C(N)=O)[C@@H](C)CC [SAHB3BIDA]
GST-BCL-2
  increase in displacement potency compared to unmodified BID BH3 peptide: more than 13 fold
GST-BCL-2; competition with FITC-labeled unmodified BID BH3
  GST-BCL2 binding, in words: highest affinity binding
GST-BCL-2; read-out: IC50 for displacement of prebound FITC-BID BH3 from BCL-2
  IC50: 62 nM
RS4;11
  IC50: 2700 nM
BAX
  BAX binding, in words: measurable binding
[1]; 100 nM, 40 minutes
  cytochrome c release at ten-fold lower dosing, in words: retain selective BAK-dependent cytochrome c release activity
[1]; 10 minutes
  cytochrome c release at 10 minutes, in words: significant cytochrome c release
[1]; 40 minutes
  EC50: 310 nM
BCL-XL
  BCL-XL binding site, in words: binds to the defined hydrophobic pocket of BCL-XL
[3]
  BAK-independent cytochrome c release, in words: BAK-independent cytochrome c release is observed
trypsin
  enhancement in trypsin resistance compared to the unmodified peptide: 3.5 fold
REH
  IC50: 10.2 µM
[4]
  percent of the input still measurable in serum: 13%
[5]; 10 uM
  pro-apoptotic effect in BCL-2 overexpressing cells: abolished
[5]; dose response (FIG. 24)
  overcoming BCL-2 protection by dose escalation: can be overcome by dose escalation
Jurkat
  IC50: 2200 nM
[2]
  apoptosis induction, in words: specific apoptosis induction
MV4;11
  IC50: 4.7 µM
BCL-2
  enhancement in BCL-2 binding affinity compared to unmodified BID BH3 peptide: 6 fold
  Kd: 38.8 nM
SEMK2
  IC50: 1600 nM
SEMK2-M1 leukemia cells; 10 mg/kg intravenously on days 1, 2, 3, 5, 6, measured days 4 and 7
  tumor burden (total body luminescence): leukemic suppression
SEMK2-M1 leukemia cells; 10 mg/kg or 5 mg/kg intravenously on days 1, 2, 3, 6, 7, measured days 4 and 8
  tumor burden (total body luminescence): dose-dependent manner
